In this test the target is T1, MLLT1 (Homo sapiens, UniProt Q03111).
T1 construct: endogenous in cells; host or cells: MV4-11 (ATCC CRL-9591)
T1 sequence (Q03111 1-559): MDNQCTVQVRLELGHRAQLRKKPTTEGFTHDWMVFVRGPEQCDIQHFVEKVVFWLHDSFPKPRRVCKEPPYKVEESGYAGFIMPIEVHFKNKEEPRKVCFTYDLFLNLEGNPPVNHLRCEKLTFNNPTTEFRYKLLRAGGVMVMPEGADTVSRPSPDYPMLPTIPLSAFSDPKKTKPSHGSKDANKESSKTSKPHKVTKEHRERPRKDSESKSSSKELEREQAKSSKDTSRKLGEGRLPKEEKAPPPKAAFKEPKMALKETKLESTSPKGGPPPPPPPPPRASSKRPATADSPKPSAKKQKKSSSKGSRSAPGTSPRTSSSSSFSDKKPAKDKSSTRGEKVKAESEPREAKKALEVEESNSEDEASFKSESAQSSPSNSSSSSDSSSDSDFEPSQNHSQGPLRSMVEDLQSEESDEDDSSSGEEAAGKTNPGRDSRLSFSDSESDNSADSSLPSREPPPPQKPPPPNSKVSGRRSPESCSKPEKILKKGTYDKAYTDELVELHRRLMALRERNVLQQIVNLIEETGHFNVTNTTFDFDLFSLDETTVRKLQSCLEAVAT
Put plainly: MLLT1 degradation assay (JESS automated chemiluminescent detection) in MV4-11 cells. The class given is cell-based. The note with it: 24h, with respect to DMSO control. As for the experimental part: MLLT1 degradation efficacy of compounds was tested in an automated chemiluminescent detection system (JESS, Cat# 004-650). MV4-11 (#CRL-9591, ATCC) cells were seeded at a density of 1.2 million cells/well in a non-treated 6-well cell culture plate in 2.4 mL of complete medium (IMDM + 10% FBS + 1X Penicillin-Streptomycin). 10 mM DMSO stocks were prepared, and cells were treated with three concentrations of test compounds viz. 1000, 100 and 10 nM at a final DMSO concentration of 0.1% and incubated for 24h at 37°C, 5% CO2. Post incubation, cells were centrifuged, washed with HBSS and lysed in 70 uL of RIPA buffer supplemented with Protease inhibitors (sc-24948; Santa Cruz). Subsequently, protein estimation was done using BCA protein assay kit (23225; Pierce). 4 ug protein lysate (4 uL of 1ug/uL lysate) was loaded into each well of the JESS cartridge (SM-WO01; Bio-techne) and the JESS run was performed using 1:900 dilution of anti-human MLLT1 antibody (14893; Cell signaling technology) and 1:1200 dilution of anti-human GAPDH antibody (2118; Cell signaling technology) with anti-rabbit secondary detection module (DM-001; Bio-Techne). Post run, data were analysed using "Compass for SW" software for chemiluminescent detection. The peak area for each band was used for the calculation of MLLT1 degradation with respect to DMSO control. Data is shown as "MLLT1 % degradation". Category A: A ≥ 75% degradation Category B: 50% ≤ B < 75% degradation Category C: 25% ≤ C < 50% degradation Category D: D < 25% degradation Table 1

A value given as a limit tells only on which side of the number the result lay.

As to `Cc1nn(CCCCCCCC#Cc2ccnc(C(=O)N[C@H]3CCC(=O)NC3=O)c2)c2cc(C(=O)Nc3cc4[nH]c([C@H]5CCCN5C)cc4cn3)ccc12` [Example 43, 1-(9-(2-(((S)-2,6-dioxopiperidin-3-yl)carbamoyl)pyridin-4-yl)non-8-yn-1-yl)-3-methyl-N-(2-((R)-1-methylpyrrolidin-2-yl)-1H-pyrrolo [3,2-c]pyridin-6-yl)-1H-indazole-6-carboxamide], the inhibition (as a rule, the drop in the measured response relative to a control, in per cent) at 0.01 µM was in the range of 25 to 50%; the inhibition at 0.1 µM lay within 50 to 75%; the inhibition at 1 µM was at least 75%.

The compound `Cc1nn(CCCCCCCC#Cc2cccc3c2CN(C2CCC(=O)NC2=O)C3=O)c2cc(C(=O)Nc3cc4[nH]c([C@H]5CC6(CC6)CN5C)cc4cn3)ccc12` (stereo in doubt) [Example 56, 1-(9-(2-(2,6-dioxopiperidin-3-yl)-1-oxoisoindolin-4-yl)non-8-yn-1-yl)-3-methyl-N-(2-((rel-R)-5-methyl-5-azaspiro[2.4]heptan-6-yl)-1H-pyrrolo[3,2-c]pyridin-6-yl)-1H-indazole-6-carboxamide] yielded an inhibition at 0.01 µM of at least 75%, an inhibition at 0.1 µM of at least 75% and an inhibition at 1 µM of at least 75%.

Compound `Cc1nn(CCCCCOCC#Cc2cccc3c2CN(C2CCC(=O)NC2=O)C3=O)c2cc(C(=O)Nc3cc4[nH]c([C@H]5CCCN5C)cc4cn3)ccc12` (stereo partly drawn) [Example 49, 1-(5-((3-(2-(2,6-dioxopiperidin-3-yl)-1-oxoisoindolin-4-yl)prop-2-yn-1-yl)oxy)pentyl)-3-methyl-N-(2-((R)-1-methylpyrrolidin-2-yl)-1H-pyrrolo[3,2-c]pyridin-6-yl)-1H-indazole-6-carboxamide] had an inhibition at 0.01 µM of at least 75%, an inhibition at 0.1 µM of at least 75% and an inhibition at 1 µM of at least 75%.

Consider `Cc1nn(CCCCCCCCNc2cccc3c2C(=O)N(C2CCC(=O)NC2=O)C3=O)c2cc(C(=O)Nc3cc4[nH]c([C@H]5CCCN5C)cc4cn3)ccc12` (stereo partly drawn) [Example 3, 1-(8-{[2-(2,6-dioxopiperidin-3-yl)-1,3-dioxoisoindol-4-yl]amino}octyl)-3-methyl-N-{2-[(2R)-1-methylpyrrolidin-2-yl]-1H-pyrrolo[3,2-c]pyridin-6-yl}indazole-6-carboxamide], for which the inhibition at 0.01 µM lay in the range of 50 to 75%, the inhibition at 0.1 µM was at least 75% and the inhibition at 1 µM was at least 75%.

For the compound `Cc1nn(CCCCCCCC#Cc2cc3c(cc2F)C(=O)N(C2CCC(=O)NC2=O)C3)c2cc(C(=O)Nc3cc4[nH]c([C@H]5CCCN5C)cc4cn3)ccc12` (stereo partly drawn) [Example 60, 1-(9-(2-(2,6-dioxopiperidin-3-yl)-6-fluoro-1-oxoisoindolin-5-yl)non-8-yn-1-yl)-3-methyl-N-(2-((R)-1-methylpyrrolidin-2-yl)-1H-pyrrolo[3,2-c]pyridin-6-yl)-1H-indazole-6-carboxamide], the inhibition at 0.01 µM fell in the range of 25 to 50%, the inhibition at 0.1 µM lay within 50 to 75% and the inhibition at 1 µM was at least 75%.

Take `Cc1nn(CCCCCCCCC#Cc2cccc3c2CN(C2CCC(=O)NC2=O)C3=O)c2cc(C(=O)Nc3cc4[nH]c([C@H]5CCCN5C)cc4cn3)ccc12` (stereo partly drawn) [Example 54, 1-(10-(2-(2,6-dioxopiperidin-3-yl)-1-oxoisoindolin-4-yl)dec-9-yn-1-yl)-3-methyl-N-(2-((R)-1-methylpyrrolidin-2-yl)-1H-pyrrolo[3,2-c]pyridin-6-yl)-1H-indazole-6-carboxamide]: the inhibition at 0.01 µM was at least 75%, the inhibition at 0.1 µM was at least 75% and the inhibition at 1 µM was at least 75%.

Consider `Cc1nn(CCCCCCCC#Cc2ccc3c(c2)n(C)c(=O)n3C2CCC(=O)NC2=O)c2cc(C(=O)Nc3cc4[nH]c([C@H]5CCCN5C)cc4cn3)ccc12` (stereo partly drawn) [Example 39, 1-(9-(1-(2,6-dioxopiperidin-3-yl)-3-methyl-2-oxo-2,3-dihydro-1H benzo[d]imidazol-5-yl)non-8-yn-1-yl)-3-methyl-N-(2-((R)-1-methylpyrrolidin-2-yl)-1H-pyrrolo[3,2-c]pyridin-6-yl)-1H-indazole-6-carboxamide], for which the inhibition at 0.01 µM is at least 75%, the inhibition at 0.1 µM is at least 75% and the inhibition at 1 µM was at least 75%.

With `Cc1nn(CCCCCCCC#Cc2ccc(C(=O)N[C@H]3CCC(=O)NC3=O)nc2)c2cc(C(=O)Nc3cc4[nH]c([C@H]5CCCN5C)cc4cn3)ccc12` [Example 41, 1-(9-(6-(((S)-2,6-dioxopiperidin-3-yl)carbamoyl)pyridin-3-yl)non-8-yn-1-yl)-3-methyl-N-(2-((R)-1-methylpyrrolidin-2-yl)-1H-pyrrolo [3,2-c]pyridin-6-yl)-1H-indazole-6-carboxamide], the inhibition at 0.01 µM is below 25%, the inhibition at 0.1 µM lay in the range of 25 to 50% and the inhibition at 1 µM fell in the range of 50 to 75%.

Turning to `Cc1nn(CCCC2CCN(c3cccc4c3C(=O)N(C3CCC(=O)NC3=O)C4=O)CC2)c2cc(C(=O)Nc3cc4[nH]c([C@H]5CCCN5C)cc4cn3)ccc12` (stereo partly drawn) [Example 27, 1-(3-(1-(2-(2,6-dioxopiperidin-3-yl)-1,3-dioxoisoindolin-4-yl)piperidin-4-yl)propyl)-3-methyl-N-(2-((R)-1-methylpyrrolidin-2-yl)-1H-pyrrolo[3,2-c]pyridin-6-yl)-1H-indazole-6-carboxamide], the inhibition at 0.01 µM was at least 75%, the inhibition at 0.1 µM is at least 75% and the inhibition at 1 µM was at least 75%.

As for `Cc1nn(CCCC2CCN(c3ccc(C(=O)NC4CCC(=O)NC4=O)cc3F)CC2)c2cc(C(=O)Nc3cc4[nH]c([C@H]5CCCN5C)cc4cn3)ccc12` (stereo partly drawn) [Example 28, 1-(3-(1-(4-((2,6-dioxopiperidin-3-yl)carbamoyl)-2-fluorophenyl)piperidin-4-yl)propyl)-3-methyl-N-(2-((R)-1-methylpyrrolidin-2-yl)-1H-pyrrolo[3,2-c]pyridin-6-yl)-1H-indazole-6-carboxamide], the inhibition at 0.1 µM was in the range of 25 to 50% and the inhibition at 1 µM was in the range of 25 to 50%.

For `Cc1c2ccc(C(=O)Nc3cc4[nH]c([C@H]5CCCN5C)cc4cn3)cc2nn1CCCCCCCCNc1cccc2c1C(=O)N(C1CCC(=O)NC1=O)C2=O` (stereo partly drawn) [Example 5, 2-(8-((2-(2,6-dioxopiperidin-3-yl)-1,3-dioxoisoindolin-4-yl)amino)octyl)-3-methyl-N-(2-((R)-1-methylpyrrolidin-2-yl)-1H-pyrrolo[3,2-c]pyridin-6-yl)-2H-indazole-6-carboxamide], the inhibition at 0.01 µM lay in the range of 50 to 75%, the inhibition at 0.1 µM fell in the range of 50 to 75% and the inhibition at 1 µM was in the range of 25 to 50%.

On to `Cc1nn(CCCCCCCC#Cc2cccc(C(=O)N[C@H]3CCC(=O)NC3=O)n2)c2cc(C(=O)Nc3cc4[nH]c([C@H]5CCCN5C)cc4cn3)ccc12` [Example 42, 1-(9-(6-(((S)-2,6-dioxopiperidin-3-yl)carbamoyl)pyridin-2-yl)non-8-yn-1-yl)-3-methyl-N-(2-((R)-1-methylpyrrolidin-2-yl)-1H-pyrrolo [3,2-c]pyridin-6-yl)-1H-indazole-6-carboxamide], for which the inhibition at 0.01 µM was 50 to 75%, the inhibition at 0.1 µM was at least 75% and the inhibition at 1 µM is at least 75%.

The compound `Cc1c(OCCCCCCn2nc(C)c3ccc(C(=O)Nc4cc5[nH]c([C@H]6CCCN6C)cc5cn4)cc32)cccc1N1CCC(=O)NC1=O` [Example 10, 1-16-[3-(2,4-dioxo-1,3-diazinan-1-yl)-2-methylphenoxy]hexyll-3-methyl-N-{2-[(2R)-1-methylpyrrolidin-2-yl]-1H-pyrrolo [3,2-c]pyridin-6-yl}indazole-6-carboxamide] gave an inhibition at 0.01 µM of 25 to 50%, an inhibition at 0.1 µM of 25 to 50% and an inhibition at 1 µM of 25 to 50%.

Values taken from patent publication EP4667466A1, “PROTAC DEGRADERS OF MLLT1 AND/OR MLLT3” (priority 2024, dated 2025).
